In patent publication US20250263370A1 (Tay Therapeutics Limited, priority 2022, published 2025):
Several values for one entry are separate records, joined by “and”; a condition that tells them apart may be missing. Equal entries are not always repeated.

Tested on: collagen-induced arthritis
Assay: Collagen-induced arthritis (CIA) model in rats: body weight, paw volume, clinical scores, clinical observations; for Average detailed clinical score, left hind limb: key of the grades not given here; for Average detailed clinical score, right hind limb: key of the grades not given here; for Detailed Clinical Scores, left forelimb: key of the grades not given here; for Detailed Clinical Scores, left hind limb: key of the grades not given here; for Detailed Clinical Scores, right forelimb: key of the grades not given here; for Detailed Clinical Scores, right hind limb: key of the grades not given here; for Detailed Clinical Scores, score: key of the grades not given here; for Detailed Clinical Scores: left forelimb: key of the grades not given here; for Detailed Clinical Scores: left hind limb: key of the grades not given here; for Detailed Clinical Scores: right forelimb: key of the grades not given here; for Detailed Clinical Scores: right hind limb: key of the grades not given here; for Detailed Clinical Scores: score: key of the grades not given here; for Mean overall clinical score ± SD: key of the grades not given here; for overall clinical score: key of the grades not given here
Details: for Average detailed clinical score, left forelimb / Average detailed clinical score, left hind limb / Average detailed clinical score, right forelimb / Average detailed clinical score, right hind limb / Average detailed clinical score, score / Mean overall clinical score ± SD / Detailed Clinical Scores, left forelimb / Detailed Clinical Scores, left hind limb / Detailed Clinical Scores, right forelimb / Detailed Clinical Scores, right hind limb / Detailed Clinical Scores, score / Overall clinical score / Detailed Clinical Scores: left forelimb / Detailed Clinical Scores: left hind limb / Detailed Clinical Scores: right forelimb / Detailed Clinical Scores: right hind limb / Detailed Clinical Scores: score: CIA rats; for Detailed Clinical Scores, left forelimb / Detailed Clinical Scores, left hind limb / Detailed Clinical Scores, right forelimb / Detailed Clinical Scores, right hind limb / Detailed Clinical Scores, score / Detailed Clinical Scores: left forelimb / Detailed Clinical Scores: left hind limb / Detailed Clinical Scores: right forelimb / Detailed Clinical Scores: right hind limb / Detailed Clinical Scores: score: individual animals ID 1-8; for Overall clinical score: individual animals #1-8; for Mean animal paw volume ± SD: group mean; for Animal paw volume percent change: individual animals
Description: Prior to be randomly placed in treatment groups, animals were weighed, and paw volume was measured. Once randomly assigned to treatment groups, on Day 0, animals in groups 2-9 were immunized by subcutaneous injection at the base of the tail.
The immunization comprised 100 μL of the CFA+Collagen emulsion (prepared according to the method in Experimental Method A). Animals in group one received no immunization. Seven days after the first injection, animals in groups 2-9 received a booster immunization comprising 200 μL of the IFA+Collagen emulsion (prepared according to the method in Experimental Method A).
Starting on Day 0, animals in group 1 and 2 were administered daily doses of the vehicle per os (P.O.) for 21 days. […] The twice daily doses for animals in groups 4-9 were 8 hours apart (e.g., the first dose at 8:00 AM and the second dose at 4:00 PM).
Body weight of all animals was recorded daily for the 21-day period. Blind clinical scores on all four limbs were conducted for all animals in the study. Animals were assessed prior to receiving their first dose of the compound or control, and scores for each limb were combined to a total daily score for each animal. Clinical score assessments were performed on Day 0, 6, 12, 13, 14, 15, 18, 19, and 21 (for a total of 9 daily scores).
Paw volume was recorded for each animal on Day 0, 6, 12, 13, 14, 15, 18, 19, and 21 (for a total of 9 measurements). To measure paw volume, animals were gently held with one hand while the hind paw was placed into a plethysmometer with the other hand. Lipid displacement by the paw was recorded and used to represent paw volume.
All data measured and recorded was analyzed using SPSS 16.0 software. Groups were compared using one-way ANOVA and significance was set at p<0.05.

Compound: C[C@@H]1C[C@H]2[C@@H]3CCC4=CC(=O)C=C[C@]4(C)[C@@]3(F)[C@@H](O)C[C@]2(C)[C@@]1(O)C(=O)CO [dexamethasone]
- Average detailed clinical score, left forelimb (Day 13): 0.00
- Average detailed clinical score, left hind limb (Day 13): 0.00
- Average detailed clinical score, right forelimb (Day 13): 0.00
- Average detailed clinical score, right hind limb (Day 13): 0.00
- Average detailed clinical score, score (Day 13): 0.00
- Mean overall clinical score ± SD (Day 13): 0 ± 0
- Detailed Clinical Scores, left forelimb (Day 13): 0
- Detailed Clinical Scores, left hind limb (Day 13): 0
- Detailed Clinical Scores, right forelimb (Day 13): 0
- Detailed Clinical Scores, right hind limb (Day 13): 0
- Detailed Clinical Scores, score (Day 13): 0
- Overall clinical score (Day 13): 0
- Mean animal paw volume ± SD (Day 14, L paw): 1.27 mL
- Animal paw volume percent change (Day 14, L paw): −8.18% and −5.36% and 0.00% and −4.53% and −1.54% and −5.00% and −3.75% and −8.46%
- Mean animal paw volume ± SD (Day 14, R paw): 1.26 mL
- Animal paw volume percent change (Day 14, R paw): −5.62% and −2.70% and 0.00% and −8.92% and −2.33% and −7.72% and −5.17% and −8.06%
- Average detailed clinical score, left forelimb (Day 14): 0.00
- Average detailed clinical score, left hind limb (Day 14): 0.00
- Average detailed clinical score, right forelimb (Day 14): 0.00
- Average detailed clinical score, right hind limb (Day 14): 0.00
- Average detailed clinical score, score (Day 14): 0.00
- Mean overall clinical score ± SD (Day 14): 0 ± 0
- Detailed Clinical Scores, left forelimb (Day 14): 0
- Detailed Clinical Scores, left hind limb (Day 14): 0
- Detailed Clinical Scores, right forelimb (Day 14): 0
- Detailed Clinical Scores, right hind limb (Day 14): 0
- Detailed Clinical Scores, score (Day 14): 0
- Overall clinical score (Day 14): 0
- Mean animal paw volume ± SD (Day 15, L paw): 1.26 mL
- Animal paw volume percent change (Day 15, L paw): −8.92% and −7.28% and −2.17%
- Mean animal paw volume ± SD (Day 15, R paw): 1.26 mL
- Animal paw volume percent change (Day 15, R paw): −6.74% and −4.25% and −1.45%
- Average detailed clinical score, left forelimb (Day 15): 0.00
- Average detailed clinical score, left hind limb (Day 15): 0.00
- Average detailed clinical score, right forelimb (Day 15): 0.00
- Average detailed clinical score, right hind limb (Day 15): 0.00
- Average detailed clinical score, score (Day 15): 0.00
- Mean overall clinical score ± SD (Day 15): 0 ± 0
- Detailed Clinical Scores: left forelimb (Day 15): 0
- Detailed Clinical Scores: left hind limb (Day 15): 0
- Detailed Clinical Scores: right forelimb (Day 15): 0
- Detailed Clinical Scores: right hind limb (Day 15): 0
- Detailed Clinical Scores: score (Day 15): 0
- Overall clinical score (Day 15): 0
- Mean animal paw volume ± SD (Day 18, L paw): 1.29 mL
- Animal paw volume percent change (Day 18, L paw): −5.20% and −6.51% and 4.33%
- Mean animal paw volume ± SD (Day 18, R paw): 1.29 mL
- Animal paw volume percent change (Day 18, R paw): −4.49% and −4.63% and 4.36%
- Average detailed clinical score, left forelimb (Day 18): 0.00
- Average detailed clinical score, left hind limb (Day 18): 0.00
- Average detailed clinical score, right forelimb (Day 18): 0.00
- Average detailed clinical score, right hind limb (Day 18): 0.00
- Average detailed clinical score, score (Day 18): 0.00
- Mean overall clinical score ± SD (Day 18): 0 ± 0
- Detailed Clinical Scores: left forelimb (Day 18): 0
- Detailed Clinical Scores: left hind limb (Day 18): 0
- Detailed Clinical Scores: right forelimb (Day 18): 0
- Detailed Clinical Scores: right hind limb (Day 18): 0
- Detailed Clinical Scores: score (Day 18): 0
- Overall clinical score (Day 18): 0
- Mean animal paw volume ± SD (Day 19, L paw): 1.29 mL
- Animal paw volume percent change (Day 19, L paw): −5.20% and −6.90%
- Mean animal paw volume ± SD (Day 19, R paw): 1.28 mL
- Animal paw volume percent change (Day 19, R paw): −5.24% and −6.18%
- Average detailed clinical score, left forelimb (Day 19): 0.00
- Average detailed clinical score, left hind limb (Day 19): 0.00
- Average detailed clinical score, right forelimb (Day 19): 0.00
- Average detailed clinical score, right hind limb (Day 19): 0.00
- Average detailed clinical score, score (Day 19): 0.00
- Mean overall clinical score ± SD (Day 19): 0 ± 0
- Detailed Clinical Scores: left forelimb (Day 19): 0
- Detailed Clinical Scores: left hind limb (Day 19): 0
- Detailed Clinical Scores: right forelimb (Day 19): 0
- Detailed Clinical Scores: right hind limb (Day 19): 0
- Detailed Clinical Scores: score (Day 19): 0
- Overall clinical score (Day 19): 0
- Mean animal paw volume ± SD (Day 21, L paw): 1.28 mL
- Animal paw volume percent change (Day 21, L paw): −6.32% and −6.90%
- Mean animal paw volume ± SD (Day 21, R paw): 1.29 mL
- Animal paw volume percent change (Day 21, R paw): −5.99% and −6.18%
- Average detailed clinical score, left forelimb (Day 21): 0.00
- Average detailed clinical score, left hind limb (Day 21): 0.00
- Average detailed clinical score, right forelimb (Day 21): 0.00
- Average detailed clinical score, right hind limb (Day 21): 0.00
- Average detailed clinical score, score (Day 21): 0.00
- Mean overall clinical score ± SD (Day 21): 0 ± 0
- Detailed Clinical Scores: left forelimb (Day 21): 0
- Detailed Clinical Scores: left hind limb (Day 21): 0
- Detailed Clinical Scores: right forelimb (Day 21): 0
- Detailed Clinical Scores: right hind limb (Day 21): 0
- Detailed Clinical Scores: score (Day 21): 0
- Overall clinical score (Day 21): 0
